Test results reported in patent US12202815B2, “Selective androgen receptor degrader (SARD) ligands and methods of use thereof” (priority 2018, dated 2025).
Several values for one entry are separate records, joined by “and”; a condition that tells them apart may be missing. Identical values can stand only once. Entries after “also recorded” stand apart in the source; their conditions may differ. Like-named read-outs stand apart in the source and are kept apart here.

What was measured:
full length AR = experiment: LNCaP or AD1 degradation (AR FL), Western blot; type: cell-based
[1] = type: in vitro ADME; conditions: human liver microsomes
Protocol: (§1) The assay was done in a final volume of 0.5 ml in duplicates (n=2). […] After pre-incubation, reaction was started by addition of 1 mM NADPH (pre-incubated at 37° C.). Incubations were carried out in triplicate and at various time-points (0, 5, 10, 15, 30 and 60 minutes) 100 μl aliquots were removed and quenched with 100 μl of acetonitrile containing internal standard. Samples were vortex mixed and centrifuged at 4000 rpm for 10 minutes. The supernatants were transferred to 96 well plates and submitted for LC-MS/MS analysis. As control, sample incubations done in absence of NADPH were included. From % PCR (% Parent Compound Remaining), rate of compound disappearance is determined (slope) and in vitro CLint (μl/min/mg protein) was calculated.

[2] = for metabolism (in words): data not shown
RLM metabolism half-life = type: in vitro ADME; conditions: rat liver microsomes
Protocol: as §1

[3] = High dose Hershberger experiment, 7 days oral; type: in vivo, Sprague Dawley rat; conditions: 100 mpk oral 7 days, individual animals
Protocol: Body weights were recorded on day 0 and day 7 (Table 4B). On day 7, animals were sacrificed and organs were observed.

[4] = Pharmacokinetics in male Sprague Dawley rats (oral 7 days, iv Day 1)
Protocol: At initial dosing, the animals were 12 weeks of age. The animals were group housed (up to three animals/cage/group) in polycarbonate cages with hardwood chip bedding. […] Water was provided fresh daily, ad libitum. […] As necessary, the 12-hour dark cycle was interrupted to accommodate study procedures. […] Individual doses were calculated based on body weights recorded on Day 1 and Day 7 of dose administration. […] A single intravenous dose was administered via a tail vein and blood sample on Day 1.
Animals were weighed at the time of animal selection and on Day 1 and Day 7 of dose administration.
Centrifugation began within 1 hour of collection. Plasma was placed into 96-well tubes with barcode labels. Plasma was maintained on dry ice prior to storage at approximately −70° C. Drug concentrations were measured by established chromatography/mass spectrometry (LC-MS/MS) methods.

[5] = for serum drug level (bioavailability): rats dosed at 20 mg/kg
in vivo = conditions: male, Sprague Dawley, rat, 20 mpk
AR = molecular target: T1, AR (Rattus norvegicus, UniProt P15207); conditions: castrated rats, 20 mg/kg for 13 days
T1 sequence (P15207 1-902): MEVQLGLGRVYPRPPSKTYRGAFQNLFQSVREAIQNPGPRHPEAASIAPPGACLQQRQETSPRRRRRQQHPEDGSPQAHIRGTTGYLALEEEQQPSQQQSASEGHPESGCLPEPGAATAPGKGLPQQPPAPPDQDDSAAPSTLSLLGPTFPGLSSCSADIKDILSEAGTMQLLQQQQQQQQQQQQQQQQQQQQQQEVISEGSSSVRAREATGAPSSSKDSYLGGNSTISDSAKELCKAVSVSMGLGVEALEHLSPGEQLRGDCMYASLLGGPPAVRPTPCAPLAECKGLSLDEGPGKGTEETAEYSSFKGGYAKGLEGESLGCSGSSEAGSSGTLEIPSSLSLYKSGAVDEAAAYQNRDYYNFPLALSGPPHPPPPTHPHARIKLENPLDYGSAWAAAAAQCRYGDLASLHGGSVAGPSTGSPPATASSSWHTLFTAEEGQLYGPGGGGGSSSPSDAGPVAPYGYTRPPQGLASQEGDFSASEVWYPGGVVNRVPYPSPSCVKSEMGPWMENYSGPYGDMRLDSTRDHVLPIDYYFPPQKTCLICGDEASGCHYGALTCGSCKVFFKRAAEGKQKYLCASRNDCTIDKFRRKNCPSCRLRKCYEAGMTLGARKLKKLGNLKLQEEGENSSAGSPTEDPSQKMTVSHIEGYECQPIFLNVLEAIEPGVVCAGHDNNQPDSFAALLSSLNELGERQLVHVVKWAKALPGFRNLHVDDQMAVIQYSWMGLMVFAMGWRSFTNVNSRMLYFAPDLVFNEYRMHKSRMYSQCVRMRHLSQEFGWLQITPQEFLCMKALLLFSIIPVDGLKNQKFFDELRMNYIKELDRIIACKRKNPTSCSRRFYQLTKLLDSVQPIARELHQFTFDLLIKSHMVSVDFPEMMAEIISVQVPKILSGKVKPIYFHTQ
Description: One week after castration, the animals were randomized and dosed for 13 days p.o. as indicated below. Dosing solutions were be prepared in 20% DMSO+80% PEG. Body weights were be measured on day 1 and at the time of sacrifice. At sacrifice, prostate and seminal vesicles weights were taken.

[6] = Table 9, Group 3, oral 30 mg/kg
[7] = male, Sprague Dawley, rat, in vivo, iv, 5 mg/kg
[8] = male, Sprague Dawley, rat, in vivo, po, 5 mg/kg
[9] = male, Sprague Dawley, rat, in vivo, po, 20 mg/kg
[10] = male, Sprague Dawley, rat, in vivo, po, 30 mg/kg
[11] = male, Sprague Dawley, rat, in vivo, po, 60 mg/kg

C[C@](O)(Cn1ccc2cc(F)ccc21)C(=O)Nc1ccc(C#N)c(C(F)(F)F)c1 [Compound 11]
Degradation (% at 3 μM) (full length AR; 3 μM, Table 3): 60%
HLM Metabolism (H.L. min) [1]: 6 min

C[C@](O)(Cn1ccc2cc(F)ccc21)C(=O)Nc1cnc(C#N)c(C(F)(F)F)c1 [Compound 47, (S)—N-(6-Cyano-5-(trifluoromethyl)pyridin-3-yl)-3-(5-fluoro-1H-indol-1-yl)-2-hydroxy-2-methylpropanamide]
metabolism (in words) [2]: rapid metabolism

C[C@](O)(Cn1cc(Br)c(F)n1)C(=O)Nc1ccc(C#N)c(C(F)(F)F)c1 [Compound 1058]
RLM Metebolism (H.L. min) (RLM metabolism half-life): 400 min
HLM Metabolism (H.L. min) [1]: 138 min
Body wt. on sac. day [3]: 430 g and 470 g
Day 0 body wt. [3]: 430 g and 472 g
decreased exposure at the same dose as 1065 ([4]; 20 mg/kg): 37%
DN AUC0-24 ([4]; Table 10, Group 1, oral 5 mg/kg/day): 5350 (h * ng/mL)/(mg/kg/day)
DN AUC0-24 ([4]; Table 10, Group 2, oral 10 mg/kg/day): 4460 (h * ng/mL)/(mg/kg/day)
DN AUC0-24 ([4]; Table 10, Group 3, oral 20 mg/kg/day): 3200 (h * ng/mL)/(mg/kg/day)
DN AUC0-24 ([4]; Table 10, Group 4, oral 30 mg/kg/day): 2380 (h * ng/mL)/(mg/kg/day)
DN AUC0-24 ([4]; Table 10, Group 5, iv 10 mg/kg Day 1): 4550 (h * ng/mL)/(mg/kg/day)

C[C@](O)(Cn1cc(C(F)(F)F)cn1)C(=O)Nc1ccc(C#N)c(C(F)(F)F)c1 [Compound 1017]
RLM Metebolism (H.L. min) (RLM metabolism half-life): 400 min
HLM Metabolism (H.L. min) [1]: 400 min
DMPK (MLM) T1/2 (min) ([2]; MLM): Infinity

C[C@](O)(Cn1ncc(Cl)c1Br)C(=O)Nc1ccc(C#N)c(C(F)(F)F)c1 [Compound 1067, (S)-3-(5-Bromo-4-chloro-1H-pyrazol-1-yl)-N-(4-cyano-3-(trifluoromethyl)phenyl)-2-hydroxy-2-methylpropanamide]
SARD Activity Full Length % inhibition at 1 μM (full length AR; first value of the pair, 1 μM): 61%
SARD Activity Full Length % inhibition at 10 μM (full length AR; second value of the pair, 10 μM): 86%

C[C@](O)(Cn1cc(F)cn1)C(=O)Nc1cnc(C#N)c(C(F)(F)F)c1 [Compound 1022]
RLM Metebolism (H.L. min) (RLM metabolism half-life): 146 min
HLM Metabolism (H.L. min) [1]: 108 min
Serum Conc. ([5]; Table 2, rats 20 mg/kg, 24-30 hours after last dose): 64 nM
Serum Conc. ([5]; Table 3, 20 mg/kg Hershberger): 64 nM
serum drug level (bioavailability) [5]: 64 nM
concentration at 30 h (in vivo): 64 nM

C[C@](O)(Cn1cc(C#N)cn1)C(=O)Nc1ccc(C#N)c(C(F)(F)F)c1 [Compound 1048]
RLM Metebolism (H.L. min) (RLM metabolism half-life): 86 min
HLM Metabolism (H.L. min) [1]: 400 min

C[C@](O)(Cn1cc(F)cn1)C(=O)Nc1ccc(C#N)c(C(F)(F)F)c1 [Compound 1002]
RLM Metebolism (H.L. min) (RLM metabolism half-life): 78 min
HLM Metabolism (H.L. min) [1]: 82 min
serum drug level (bioavailability) [5]: 33 nM
concentration at 30 h (in vivo): 33 nM
DN AUC0-24 [4, 6]: 2070 (h * ng/mL)/(mg/kg)
DN Cmax [4, 6]: 111 (ng/mL)/(mg/kg)
AUC0-24 [4, 7]: 9580 ng·h/mL
AUC(0-inf) [4, 7]: 9600 ng·h/mL
AUC(0-t) [4, 7]: 9580 ng·h/mL
C0 [4, 7]: 2460 ng/mL
Cmax [4, 7]: 2290 ng/mL
DN AUC0-24 [4, 7]: 1920
Tmax [4, 7]: 0.083 h
Vd [4, 7]: 2.14 L/kg
clearance [4, 7]: 8.68 mL/min/kg
half-life ([4]; male, Sprague Dawley, rat, in vivo, iv, 5 mg/kg, elimination half-life): 2.6 h
half-life ([4]; male, Sprague Dawley, rat, in vivo, iv, 5 mg/kg, t1/2): 2.62 h
AUC0-24 [4, 8]: 6860 ng·h/mL
AUC(0-inf) [4, 8]: 7050 ng·h/mL
AUC(0-t) [4, 8]: 6860 ng·h/mL
Cmax [4, 8]: 526 ng/mL
DN AUC0-24 [4, 8]: 1370
Tmax [4, 8]: 1 h
half-life ([4]; male, Sprague Dawley, rat, in vivo, po, 5 mg/kg, t1/2): 4.87 h
AUC0-t [4, 9]: 37000 ng·h/mL
AUC(0-t) [4, 9]: 37000 ng·h/mL
Cmax [4, 9]: 2620 ng/mL
DN AUC0-24 [4, 9]: 1850
Tmax [4, 9]: 6 h
Cmax [4, 10]: 3330 ng/mL
Tmax [4, 10]: 12 h
AUC0-24 [4, 11]: 77500 ng·h/mL
AUC(0-t) [4, 11]: 77500 ng·h/mL
Cmax [4, 11]: 3800 ng/mL
DN AUC0-24 [4, 11]: 1290
Tmax [4, 11]: 1 h

C[C@](O)(Cn1cc(-c2ccc(F)cc2)nn1)C(=O)Nc1ccc(C#N)c(C(F)(F)F)c1 [Compound 1045]
pharmacokinetic properties (in words) ([5]; 20 mg/kg Hershberger experiment): outstanding pharmacokinetic properties

C[C@](O)(Cn1nc(F)c2cc(F)ccc21)C(=O)Nc1cnc(C#N)c(C(F)(F)F)c1 [Compound 99, (S)—N-(6-Cyano-5-(trifluoromethyl)pyridin-3-yl)-3-(3,5-difluoro-1H-indazol-1-yl)-2-hydroxy-2-methylpropanamide]
metabolism (in words) [2]: rapid metabolism

C[C@](O)(Cn1cc(Cl)c(Br)n1)C(=O)Nc1ccc(C#N)c(C(F)(F)F)c1 [Compound 1066, (S)-3-(3-Bromo-4-chloro-1H-pyrazol-1-yl)-N-(4-cyano-3-(trifluoromethyl)phenyl)-2-hydroxy-2-methylpropanamide]
RLM Metebolism (H.L. min) (RLM metabolism half-life): 300 min
HLM Metabolism (H.L. min) [1]: 319 min

C[C@](O)(COc1ccc(C#N)cc1)C(=O)Nc1ccc(C#N)c(C(F)(F)F)c1 [Enobosarm]
SV and VP re-growth, % of intact vehicle (AR): 50-60%
agonist activity in ventral prostate and seminal vesicles (in words) (AR; 20 mg/kg): partial agonist; also recorded: significant agonism
